These results are taken from PMC5484788, “Development of a common carp (Cyprinus carpio) pregnane X receptor (cPXR) transactivation reporter assay and its activation by azole fungicides and pharmaceutical chemicals” (Toxicology in Vitro, 2017).

The EC50 is the concentration giving half of the maximal effect. Read a low EC50 as an effect from little substance.

For one data set, the target named is T1, hPXR (Homo sapiens, UniProt O75469).
T1 sequence (O75469 1-473 isoform O75469-7): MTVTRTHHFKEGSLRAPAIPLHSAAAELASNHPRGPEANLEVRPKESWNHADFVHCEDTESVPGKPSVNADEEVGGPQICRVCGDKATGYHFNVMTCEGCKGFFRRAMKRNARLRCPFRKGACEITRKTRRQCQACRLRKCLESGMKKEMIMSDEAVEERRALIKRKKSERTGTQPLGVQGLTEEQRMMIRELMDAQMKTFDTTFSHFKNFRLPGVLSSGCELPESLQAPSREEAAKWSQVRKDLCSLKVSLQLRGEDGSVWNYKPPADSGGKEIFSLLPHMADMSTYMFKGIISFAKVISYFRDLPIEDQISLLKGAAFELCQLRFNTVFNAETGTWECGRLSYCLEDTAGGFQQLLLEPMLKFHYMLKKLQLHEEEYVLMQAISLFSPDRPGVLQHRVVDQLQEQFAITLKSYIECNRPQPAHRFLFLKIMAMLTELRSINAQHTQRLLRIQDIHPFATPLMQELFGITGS
As to the kind of experiment: human PXR (hPXR) luciferase transactivation reporter assay, pGL4.24-6xPXRE reporter, COS-7 cells. The following applies: for maximal effect (Emax) hPXR, times that of the control: COS-7 cells, 44 h, relative to DMSO control. The procedure:
Human PXR (hPXR) clone cDNA was purchased from Promega. […] The following PCR protocol was employed: 21 cycles of denaturation at 98 °C for 10 s, annealing at 60 °C for 5 s and elongation at 72 °C for 15 s. The purified product was then ligated into the eukaryotic expression vector pcDNA3.1(+) (Invitrogen) using the correspondent restriction enzymes and T4 DNA ligase (Promega).
(§1) A reporter vector was constructed based on several variations of the PXR response element (PXRE; Fig. 1). The PXRE occurs either as a direct or everted repeat of the consensus motif […], spaced by between 3 and 8 nucleotides. The PXRE sequence created here was based on that reported in [Xie et al. (2000)]. […] To maximise reporter efficiency, a further PXRE motif was added either side of the previously generated long chain oligo using PCR. […] The following PCR conditions were employed: 21 cycles of denaturation at 98 °C for 10 s, annealing at 60 °C for 5 s and elongation at 72 °C for 30 s. After purification, and using the appropriate restriction enzymes KpnI and HindIII, the obtained fragment was subsequently ligated into the pGL4.24[luc2P/minP] vector (Promega) which contains the firefly (Photinus pyralis) luciferase (luc2P) gene, to create the pGL4.24-6xPXRE reporter construct.
(§2) The cells were maintained at subconfluent densities and sub-cultured when reaching 80% confluency.
(§3) For transfection assays, cells were seeded in 24-well plates at 5 × 10^4 cells well^− 1 in phenol-red free DMEM (supplemented with 10% charcoal/dextran-treated foetal bovine serum (Hyclone). After 24 h, the cells were transiently transfected with 200 ng of either pcDNA3.1(+)/cPXR or pcDNA3.1(+)/hPXR, 400 ng of reporter construct (either MMTV/luc2/pGL4 (Promega) or pGL4.24-6xPXRE) and 100 ng of pRL-TK (driving the Renilla reniformis luciferase gene as an internal control to normalise for variations in transfection efficiency) using Fugene HD transfection reagent (Promega) in serum-free medium according to the manufacturer's protocol. Four hours after transfection, cells were treated with PXR agonists (see below). Forty-eight hours after transfection, cells were lysed and the luciferase activities of the cells were measured by a chemiluminescence assay with Dual-Luciferase Reporter Assay System (Promega) according to the manufacturer's instructions. Luminescence was measured using an Infinite 200 Pro plate reader (Tecan, Grödig, Austria). Promoter activity was calculated as firefly (Photinus pyralis)-luciferase activity/sea pansy (R. reniformis)-luciferase activity. All transfections were done at least three times, employing triplicate sample points in each experiment.
(§4) In addition to the pGL4.24-6xPXRE reporter construct, a commercially available MMTV/luc2/pGL4 reporter vector (Promega) was tested as a reporter plasmid (i.e. for PXRE function), as it is known to contain various nuclear receptor response elements in the promoter region.
On the technique in general: In a reporter assay the amount or activity of a reporter protein is the signal.

A further data set has as its target cPXR (Cyprinus carpio, UniProt A0A1P8P0E9). In words: carp PXR (cPXR) luciferase transactivation reporter assay, pGL4.24-6xPXRE reporter, COS-7 cells. The following applies: for transactivation of cPXR (result in words): concentration-response 10^-11 to 10^-5 M, pGL4.24-6xPXRE reporter. Here is the method:
For this, cDNA was reverse transcribed from 1 μg of carp liver total RNA as described above and amplified using the Advantage 2 DNA polymerase mix (Clontech) according to the manufacturer's instructions. The resulting PCR product was purified and sequenced to confirm the full sequence length and sub-cloned into pGEM-T Easy vector (Promega) following the manufacturer's recommendations. Plasmid DNA was isolated using the Wizard Plus SV minipreps DNA Purification system (Promega) according to manufacturer's instructions. Using the BamHI and EcoRV sites, the cPXR sequences was subsequently ligated into the eukaryotic expression vector pcDNA3.1(+) (Invitrogen) using the correspondent restriction enzymes (New England Biolabs, Hitchin, UK) and T4 DNA ligase (Promega).
as §1, §2, §3, §4

A further data set deals with FHM PXR. Also on record: method as in Milnes et al., 2008. The following applies: exposure to 50 μM; ref Milnes et al., 2008; cited from earlier work.
A further data set has as its system zebrafish PXR. Particulars: ref Bainy et al., 2013, cited from earlier work.
The test system of the next data set is PXR from the pufferfish. Particulars: 50 μM; ref Milnes et al., 2008; cited from earlier work.
The subject of a further data set is COS-7 cells. As to the kind of experiment: toxicity to COS-7 cells in the transactivation assays (inhibited cell growth). Type of data set: cell-based. Particulars: 100 μM, in both cPXR and hPXR assays.
Setting [1] is: concentration-response 10^-11 to 10^-5 M, pGL4.24-6xPXRE reporter.

Read-outs that look alike come from different tables or passages of the source.

Chain of cPXR (A0A1P8P0E9 entry or part of it): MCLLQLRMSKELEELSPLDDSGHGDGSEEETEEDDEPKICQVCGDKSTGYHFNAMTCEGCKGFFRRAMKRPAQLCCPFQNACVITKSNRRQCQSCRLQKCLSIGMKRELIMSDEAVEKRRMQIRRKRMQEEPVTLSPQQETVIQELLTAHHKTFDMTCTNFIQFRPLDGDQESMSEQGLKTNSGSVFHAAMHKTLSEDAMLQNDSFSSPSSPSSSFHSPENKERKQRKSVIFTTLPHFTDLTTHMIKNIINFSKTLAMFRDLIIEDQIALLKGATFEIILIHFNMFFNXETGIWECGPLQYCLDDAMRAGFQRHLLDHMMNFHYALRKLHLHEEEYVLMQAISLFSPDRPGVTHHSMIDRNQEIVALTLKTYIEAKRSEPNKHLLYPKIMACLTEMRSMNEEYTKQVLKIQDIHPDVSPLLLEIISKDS

Regarding `CC(C)NCC(O)COc1ccc(CC(N)=O)cc1` (stereo not shown) [ATN, atenolol], the “transactivation of hPXR (result in words)” value on hPXR (setting [1]) was “did not induce transactivation”. At cPXR, the “transactivation of cPXR (result in words)” value is recorded as “did not induce transactivation”.

As for `CC(C)(Oc1ccc(Cl)cc1)C(=O)O` [CFA, clofibric acid], the “transactivation of hPXR (result in words)” value at hPXR (setting [1]) is reported as “did not induce transactivation”. Also, the “transactivation of cPXR (result in words)” value at cPXR is listed as “did not induce transactivation”.

`Clc1ccccc1C(c1ccccc1)(c1ccccc1)n1ccnc1` [CTZ, clotrimazole]: the EC50 on hPXR turned out to be 880 nM. Besides, the “maximal effect (Emax) hPXR, times that of the control” value at hPXR (pGL4.24-6xPXRE reporter) is given as 4.8 x-fold. Moreover, the “FHM PXR up-regulation” value in the data set on FHM PXR is given as “up to 35 times”. Further, the “zebrafish PXR up-regulation above controls” value in the data set with zebrafish PXR (exposure concentrations between 0.5 and 50 μM, Milnes et al., 2008, Moore et al., 2000) was 8 fold. Further, the “lower activation of zebrafish full-length PXR compared with zebrafish PXR-LBD construct” value in the data set on zebrafish PXR is reported as 90%.

Take `O=C(O)Cc1ccccc1Nc1c(Cl)cccc1Cl` [DIC, diclofenac]: the “transactivation of hPXR (result in words)” value on hPXR is recorded as “did not induce transactivation”. In addition, on cPXR, the “transactivation of cPXR (result in words)” value was “did not induce transactivation”.

As to `C#C[C@]1(O)CC[C@H]2[C@@H]3CCc4cc(O)ccc4[C@H]3CC[C@@]21C` [EE2, 17α-ethinyloestradiol], on hPXR, the “concentration at which transactivation of hPXR was induced” value is 10 µM and the “transactivation of hPXR (result in words)” value is reported as “activate hPXR”. In addition, the “transactivation of cPXR (result in words)” value at cPXR is “activated”. In addition, the “concentration at which transactivation of cPXR was induced” value on cPXR (only concentration giving induction, range 10^-11 to 10^-5 M) stood at 10 µM.

As to `Cc1ccc(C)c(OCCCC(C)(C)C(=O)O)c1` [GEM, gemfibrozil], the “transactivation of hPXR (result in words)” value on hPXR (setting [1]) is reported as “did not induce transactivation”. On cPXR, the “transactivation of cPXR (result in words)” value was “did not induce transactivation”.

`CC(C)Cc1ccc(C(C)C(=O)O)cc1` (stereo not shown) [IBU, ibuprofen]: the “transactivation of cPXR (result in words)” value on cPXR was “did not induce transactivation”.

On to `CC(=O)N1CCN(c2ccc(OCC3COC(Cn4ccnc4)(c4ccc(Cl)cc4Cl)O3)cc2)CC1` (stereo not shown) [KTZ, ketoconazole], for which the “transactivation of hPXR (result in words)” value at hPXR (setting [1]) is given as “had no effect”. Moreover, the “transactivation of cPXR (result in words)” value at cPXR is reported as “had no effect”.

As for `Clc1ccc(COC(Cn2ccnc2)c2ccc(Cl)cc2Cl)c(Cl)c1` (stereo not shown) [MCZ, miconazole], the “transactivation of hPXR (result in words)” value at hPXR (setting [1]) is “induced transactivational activity”.

For the molecule `CCCC1COC(Cn2cncn2)(c2ccc(Cl)cc2Cl)O1` (stereo not shown) [PCZ, propiconazole], the “transactivation of hPXR (result in words)” value on hPXR (setting [1]) was “induced transactivational activity”. In addition, at cPXR, the EC50 is 213 nM and the “transactivation of cPXR (result in words)” value is “induced transactivational activity”.

The molecule `CC(C)NCC(O)COc1cccc2ccccc12` (stereo not shown) [Propranolol, propranolol] returned an EC50 on hPXR of 44 nM.

Consider `CO[C@H]1/C=C/O[C@@]2(C)Oc3c(C)c(O)c4c(O)c(c(/C=N/N5CCN(C)CC5)c(O)c4c3C2=O)NC(=O)/C(C)=C\C=C\[C@H](C)[C@H](O)[C@@H](C)[C@@H](O)[C@@H](C)[C@H](OC(C)=O)[C@@H]1C` [RIF, rifampicin], for which the “activation of hPXR compared with control, single concentration” value on hPXR (1 μM (10^-6 M), pGL4.24-6xPXRE reporter, reporter plasmid comparison) is reported as “significant activation”. For the same molecule, the “maximal effect (Emax) hPXR, times that of the control” value at hPXR (pGL4.24-6xPXRE reporter) stood at 6.4 x-fold. On cPXR, the “transactivation of cPXR (result in words)” value was “not activated”. For the same molecule, the “activation of pufferfish PXR” value in the data set on PXR from the pufferfish is “activate”.

In the case of `CC/C(=C(\c1ccccc1)c1ccc(OCCN(C)C)cc1)c1ccccc1` [TAM, tamoxifen], the “toxicity to COS-7 cells (inhibited cell growth)” value with COS-7 cells was “toxic”. Moreover, the “transactivation of cPXR (result in words)” value at cPXR was “had no effect”.
